Numbers after ± are expanded uncertainties.
Assay: xn = mol fraction of the nth substance listed
Conditions: Liquid, Vibrating tube method

CC(C)O [propan-2-ol] + O
Conditions | mass density [kg/m3]
300.08 K, 7 kPa, x1 = 0.2483 | 895.51 ± 0.9
300.08 K, 7.3 kPa, x1 = 0.7258 | 805.5 ± 0.81
300.08 K, 88.2 kPa, x1 = 0.7258 | 805.57 ± 0.81
300.08 K, 146.2 kPa, x1 = 0.2483 | 895.5 ± 0.9
300.08 K, 303 kPa, x1 = 0.7258 | 805.78 ± 0.82
300.08 K, 381.3 kPa, x1 = 0.2483 | 895.67 ± 0.9
300.08 K, 565.1 kPa, x1 = 0.7258 | 806 ± 0.82
300.08 K, 764.9 kPa, x1 = 0.2483 | 895.89 ± 0.9
300.08 K, 1101.1 kPa, x1 = 0.2483 | 896.11 ± 0.9
300.08 K, 1126.2 kPa, x1 = 0.7258 | 806.42 ± 0.82
300.08 K, 1556.8 kPa, x1 = 0.2483 | 896.32 ± 0.9
300.08 K, 1702.5 kPa, x1 = 0.7258 | 806.92 ± 0.82
300.08 K, 1921.9 kPa, x1 = 0.2483 | 896.56 ± 0.91
300.08 K, 2181.5 kPa, x1 = 0.2483 | 896.86 ± 0.91
300.08 K, 2239.8 kPa, x1 = 0.7258 | 807.33 ± 0.82
300.08 K, 2610.1 kPa, x1 = 0.2483 | 897.09 ± 0.91
300.08 K, 2722.7 kPa, x1 = 0.7258 | 807.73 ± 0.82
300.08 K, 3080.5 kPa, x1 = 0.2483 | 897.32 ± 0.91
300.08 K, 3196 kPa, x1 = 0.7258 | 808.11 ± 0.82
300.08 K, 3522.3 kPa, x1 = 0.2483 | 897.58 ± 0.91
300.08 K, 3715.6 kPa, x1 = 0.7258 | 808.53 ± 0.82
300.08 K, 4082.6 kPa, x1 = 0.2483 | 897.87 ± 0.91
300.08 K, 4231.5 kPa, x1 = 0.7258 | 808.93 ± 0.82
300.08 K, 4587.1 kPa, x1 = 0.7258 | 809.31 ± 0.82
300.08 K, 4663.3 kPa, x1 = 0.2483 | 898.17 ± 0.91
300.08 K, 5151.3 kPa, x1 = 0.2483 | 898.42 ± 0.91
300.08 K, 5314.6 kPa, x1 = 0.7258 | 809.85 ± 0.82
300.08 K, 5562.5 kPa, x1 = 0.2483 | 898.65 ± 0.91
300.08 K, 5793.2 kPa, x1 = 0.7258 | 810.24 ± 0.82
300.08 K, 5980.5 kPa, x1 = 0.2483 | 898.85 ± 0.91
300.08 K, 6301.2 kPa, x1 = 0.7258 | 810.63 ± 0.83
300.08 K, 6414.3 kPa, x1 = 0.2483 | 899.11 ± 0.91
300.08 K, 6754.8 kPa, x1 = 0.2483 | 899.33 ± 0.91
300.08 K, 6783.9 kPa, x1 = 0.7258 | 811.02 ± 0.83
300.08 K, 7246.8 kPa, x1 = 0.2483 | 899.56 ± 0.91
300.08 K, 7297.6 kPa, x1 = 0.7258 | 811.43 ± 0.83
300.08 K, 7636.7 kPa, x1 = 0.2483 | 899.78 ± 0.91
300.08 K, 7804.4 kPa, x1 = 0.7258 | 811.81 ± 0.83
300.08 K, 8131.6 kPa, x1 = 0.2483 | 900.04 ± 0.91
300.08 K, 8342.2 kPa, x1 = 0.7258 | 812.23 ± 0.83
300.08 K, 8662.8 kPa, x1 = 0.2483 | 900.28 ± 0.91
300.08 K, 8818 kPa, x1 = 0.7258 | 812.6 ± 0.83
300.08 K, 9087.3 kPa, x1 = 0.2483 | 900.54 ± 0.91
300.08 K, 9330.1 kPa, x1 = 0.7258 | 813 ± 0.83
300.08 K, 9562.3 kPa, x1 = 0.2483 | 900.79 ± 0.91
300.08 K, 9918.9 kPa, x1 = 0.7258 | 813.45 ± 0.83
300.1 K, 7.2 kPa, x1 = 0.4939 | 837.98 ± 0.85
300.1 K, 233.4 kPa, x1 = 0.4939 | 838.18 ± 0.85
300.1 K, 503 kPa, x1 = 0.4939 | 838.33 ± 0.85
300.1 K, 946.6 kPa, x1 = 0.4939 | 838.71 ± 0.85
300.1 K, 1545.3 kPa, x1 = 0.4939 | 839.06 ± 0.85
300.1 K, 1902.2 kPa, x1 = 0.4939 | 839.36 ± 0.85
300.1 K, 2303.5 kPa, x1 = 0.4939 | 839.65 ± 0.85
300.1 K, 2724.6 kPa, x1 = 0.4939 | 839.96 ± 0.85
300.1 K, 3136.5 kPa, x1 = 0.4939 | 840.26 ± 0.85
300.1 K, 3567.9 kPa, x1 = 0.4939 | 840.56 ± 0.85
300.1 K, 3995.8 kPa, x1 = 0.4939 | 840.87 ± 0.85
300.1 K, 4436.2 kPa, x1 = 0.4939 | 841.18 ± 0.85
300.1 K, 4835.5 kPa, x1 = 0.4939 | 841.48 ± 0.85
300.1 K, 5262 kPa, x1 = 0.4939 | 841.77 ± 0.85
300.1 K, 5699.8 kPa, x1 = 0.4939 | 842.07 ± 0.85
300.1 K, 6161 kPa, x1 = 0.4939 | 842.39 ± 0.86
300.1 K, 6588.4 kPa, x1 = 0.4939 | 842.68 ± 0.86
300.1 K, 7053 kPa, x1 = 0.4939 | 843 ± 0.86
300.1 K, 7437.9 kPa, x1 = 0.4939 | 843.28 ± 0.86
300.1 K, 7862 kPa, x1 = 0.4939 | 843.57 ± 0.86
300.1 K, 8248.5 kPa, x1 = 0.4939 | 843.86 ± 0.86
300.1 K, 8704.4 kPa, x1 = 0.4939 | 844.15 ± 0.86
300.1 K, 9260.6 kPa, x1 = 0.4939 | 844.49 ± 0.86
300.1 K, 9966.4 kPa, x1 = 0.4939 | 845.04 ± 0.86
325.09 K, 28.6 kPa, x1 = 0.4939 | 814.94 ± 0.83
325.09 K, 65.4 kPa, x1 = 0.4939 | 814.96 ± 0.83
325.09 K, 303 kPa, x1 = 0.4939 | 815.2 ± 0.83
325.09 K, 645.3 kPa, x1 = 0.4939 | 815.47 ± 0.83
325.09 K, 1004.8 kPa, x1 = 0.4939 | 815.8 ± 0.83
325.09 K, 1391.9 kPa, x1 = 0.4939 | 816.13 ± 0.83
325.09 K, 1788.1 kPa, x1 = 0.4939 | 816.48 ± 0.83
325.09 K, 2242 kPa, x1 = 0.4939 | 816.83 ± 0.83
325.09 K, 2881.1 kPa, x1 = 0.4939 | 817.33 ± 0.83
325.09 K, 3904.6 kPa, x1 = 0.4939 | 818.19 ± 0.83
325.09 K, 4242.1 kPa, x1 = 0.4939 | 818.51 ± 0.83
325.09 K, 4784.4 kPa, x1 = 0.4939 | 818.94 ± 0.83
325.09 K, 5116.8 kPa, x1 = 0.4939 | 819.26 ± 0.83
325.09 K, 5507.3 kPa, x1 = 0.4939 | 819.61 ± 0.83
325.09 K, 5912.2 kPa, x1 = 0.4939 | 819.93 ± 0.83
325.09 K, 6322.1 kPa, x1 = 0.4939 | 820.28 ± 0.84
325.09 K, 6773 kPa, x1 = 0.4939 | 820.6 ± 0.84
325.09 K, 7214.5 kPa, x1 = 0.4939 | 820.97 ± 0.84
325.09 K, 7613.3 kPa, x1 = 0.4939 | 821.31 ± 0.84
325.09 K, 8080.5 kPa, x1 = 0.4939 | 821.7 ± 0.84
325.09 K, 8603.1 kPa, x1 = 0.4939 | 822.11 ± 0.84
325.09 K, 9197.3 kPa, x1 = 0.4939 | 822.51 ± 0.84
325.09 K, 9561.4 kPa, x1 = 0.4939 | 822.86 ± 0.84
325.1 K, 27.3 kPa, x1 = 0.2483 | 874.07 ± 0.88
325.1 K, 72.6 kPa, x1 = 0.2483 | 874.13 ± 0.88
325.1 K, 410.3 kPa, x1 = 0.2483 | 874.37 ± 0.88
325.1 K, 962.1 kPa, x1 = 0.2483 | 874.71 ± 0.88
325.1 K, 1343 kPa, x1 = 0.2483 | 875.01 ± 0.88
325.1 K, 1859.5 kPa, x1 = 0.2483 | 875.37 ± 0.89
325.1 K, 2332.6 kPa, x1 = 0.2483 | 875.6 ± 0.89
325.1 K, 2826.4 kPa, x1 = 0.2483 | 875.91 ± 0.89
325.1 K, 3319.4 kPa, x1 = 0.2483 | 876.24 ± 0.89
325.1 K, 3776.3 kPa, x1 = 0.2483 | 876.52 ± 0.89
325.1 K, 4236.7 kPa, x1 = 0.2483 | 876.83 ± 0.89
